# In PubChem BioAssay (NCI):
# Where “and” joins values, the source holds several entries; their conditions need not be identical. Equal entries are not always repeated.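 Grown in 96-well plates, cells were treated for 48 hours with each compound at five concentrations. Insufficient inhibition: endpoint recorded as highest concentration tested. GI50 = concentration required for 50% inhibition of growth. The concentration for full growth arrest is given as TGI.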
# Columns and labels:
# Assay in all cases: growth of human tumour cells (NCI), 48 h
# [1] = test system: SK-OV-3 ovarian
# [2] = test system: SR leukemia
# [3] = test system: HOP-62 NSCLC
# [4] = test system: HOP-92 NSCLC
# [5] = test system: TK-10 renal
# [6] = test system: HCC-2998 colon
# [7] = test system: T-47D breast
# [8] = test system: MDA-MB-435
# [9] = test system: RXF 393 renal
# [10] = test system: CAKI-1 renal
# [11] = test system: HS 578T breast
# [12] = test system: HL-60(TB) leukemia
# [13] = test system: SF-268 CNS
# [14] = test system: ACHN renal
# [15] = test system: NCI-H23 lung
Compound,TGI [1],TGI [2],TGI [3],TGI [4],TGI [5],TGI [6],TGI [7],TGI [8],TGI [9],TGI [10],TGI [11],TGI [12],TGI [13],TGI [14],TGI [15],GI50 [1],GI50 [3],GI50 [5],GI50 [13],GI50 [15]
[O-]/N=N\c1on[n+](CCc2ccccc2)c1Cc1c(/N=N/[O-])on[n+]1CCc1ccccc1,> 100 µM,> 100 µM,48.3 µM,65.8 µM,56.2 µM,> 100 µM,> 100 µM,> 100 µM,> 100 µM,> 100 µM,62.2 µM,> 100 µM,> 100 µM,> 100 µM,61.3 µM,–,–,–,–,–
CCOC(=O)C(Cc1ccc2c(c1)CCC2)Cc1ccc2c(c1)CCC2,> 100 µM,60.1 µM,> 100 µM,> 100 µM,> 100 µM,> 100 µM,> 100 µM,> 100 µM,> 100 µM,> 100 µM,> 100 µM,58.2 µM,> 100 µM,> 100 µM,> 100 µM,–,–,–,–,–
CC(=O)[C@H]1[C@@H](OCc2ccccc2)O[N+]([O-])=C(C)[C@@H]1c1ccccc1,> 100 µM,42 µM,> 100 µM,62.4 µM,> 100 µM,> 100 µM,58.1 µM,> 100 µM,34.2 µM,52 µM,72.4 µM,40.8 µM,> 100 µM,78.4 µM,> 100 µM,–,–,–,–,–
CC12OC3(C(O)C1O)C(C(=O)O[C@H]3CO[Si](C)(C)C(C)(C)C)C2S(=O)(=O)c1ccccc1 (stereo not given in full),> 100 µM,87.5 µM,> 100 µM,> 100 µM,> 100 µM,–,79.3 µM,> 100 µM,–,–,> 100 µM,67.9 µM,> 100 µM,> 100 µM,–,–,–,–,–,–
CCOC(=O)CCC(NC(=O)c1ccc(OCc2ccc3nc(OC)c(OC)nc3c2)cc1)C(=O)OCC (stereo not given),> 100 µM,> 100 µM,> 100 µM,> 100 µM,> 100 µM,> 100 µM,> 100 µM,91.1 µM,90.7 µM,> 100 µM,> 100 µM,73.5 µM,> 100 µM,> 100 µM,> 100 µM,–,–,–,–,–
Cc1ccc(C)c(NC(=O)/C(=N\N)C(c2cnc3ccc([N+](=O)[O-])cc3n2)[N+](=O)[O-])c1 (stereo not given),> 100 µM,> 100 µM,> 100 µM,> 100 µM,> 100 µM,> 100 µM,> 100 µM,> 100 µM,> 100 µM,> 100 µM,> 100 µM,> 100 µM,> 100 µM,40.1 µM,> 100 µM,–,–,–,–,–
c1ccc2c(c1)ccc1nc3ccccn3c12,> 100 µM,> 100 µM,> 100 µM,> 100 µM,> 100 µM,> 100 µM,> 100 µM,> 100 µM,> 100 µM,–,> 100 µM,> 100 µM,> 100 µM,> 100 µM,> 100 µM,–,–,–,–,–
c1ccc(-c2sc(-c3ccccc3)c3c2C2CCC3C2)cc1,> 100 µM,56.8 µM,> 100 µM,47.9 µM,89.7 µM,–,> 100 µM,> 100 µM,84.5 µM,> 100 µM,70.6 µM,> 100 µM,> 100 µM,> 100 µM,> 100 µM,–,–,–,–,–
CCCC1=NC(C(F)(F)F)(C(F)(F)F)N=C(N2CCOCC2)O1,> 100 µM,> 100 µM,> 100 µM,> 100 µM,> 100 µM,> 100 µM,> 100 µM,> 100 µM,> 100 µM,> 100 µM,> 100 µM,> 100 µM,> 100 µM,–,> 100 µM,–,–,–,–,–
C=CCN1C(=O)/C(=C/c2ccccc2)N=C1SC1OC(COC(C)=O)C(OC(C)=O)C(OC(C)=O)C1OC(C)=O (stereo not given),> 100 µM,> 100 µM,> 100 µM,76.6 µM,> 100 µM,> 100 µM,> 100 µM,> 100 µM,36.6 µM,53.8 µM,72.2 µM,60.6 µM,53.4 µM,64.6 µM,87.6 µM,–,–,–,–,–
COc1cc(CC(C)N[C@@H](C)c2ccccc2)cc(OC)c1 (stereo not given in full),25.5 µM and > 100 µM,15.2 µM and > 100 µM,24.2 µM and > 100 µM,10.8 µM and > 100 µM,24.7 µM and > 100 µM,–,18.3 µM and > 100 µM,19.6 µM and > 100 µM,> 100 µM,> 100 µM,> 100 µM,10.7 µM and > 100 µM,25.8 µM and > 100 µM,21.1 µM and > 100 µM,27.3 µM and > 100 µM,12.9 µM and > 100 µM,11.2 µM and > 100 µM,12.2 µM and 53.8 µM,12.3 µM and > 100 µM,11.6 µM and > 100 µM
CC(=O)O[C@@H]1[C@@H](C)[C@]2(CC(c3ccoc3)OC2O)C2CCC3O[C@]3(C)[C@]2(C)[C@@H]1OC(C)=O (stereo not given in full),> 100 µM,58 µM,–,> 100 µM,> 100 µM,–,86.8 µM,> 100 µM,> 100 µM,> 100 µM,> 100 µM,48.7 µM,> 100 µM,> 100 µM,> 100 µM,–,–,–,–,–
COC(=O)c1ccc(-n2c(C)nc(=O)c(-c3ccccc3)c2C)cc1,> 100 µM,> 100 µM,> 100 µM,> 100 µM,> 100 µM,> 100 µM,> 100 µM,> 100 µM,> 100 µM,> 100 µM,> 100 µM,> 100 µM,> 100 µM,> 100 µM,> 100 µM,–,–,–,–,–
CCNC(=S)Nc1c(C#N)c2n(c1C(=O)OCC)CCCCC2,> 100 µM,> 100 µM,> 100 µM,> 100 µM,> 100 µM,> 100 µM,> 100 µM,> 100 µM,> 100 µM,> 100 µM,> 100 µM,> 100 µM,> 100 µM,> 100 µM,> 100 µM,–,–,–,–,–
